Assay results reported in patent publication US20240287054A1, “COMPOUNDS THAT BIND NON-CANONICAL G-QUADRUPLEX STRUCTURES AND METHODS OF MAKING AND USING THE SAME” (The U.S.A., as Represented by the Secretary, Department of …, priority 2021, published 2024).
Where two headings read alike, the source gives them in different places.

Columns and labels:
Assay type in all cases: binding, human
MYCN G4 DNA [1] = assay: Surface plasmon resonance (SPR) with immobilized biotinylated MYCN G4 DNA; conditions: for positive binding in SPR (SNR>3): single concentration 100 μM compound
Experimental: Surface plasmon resonance (SPR) analysis. The SPR binding assays were performed with a BIAcore 3000 (GE Healthcare) instrument. A CM5 SPR biochip was loaded into the system and primed with running buffer (10 mM Tris, pH7.0, 100 mM KCl, 0.005% Tween 20, 5% DMSO) with a flow rate of 5 μL/min. Then both Flow Cell (Fc) 1 and 2 were activated by EDC/NHS (0.4 M/0.1 M) aqueous solution for 15 min, followed with an injection of streptavidin (SA) solution (0.2 mg/mL in 10 mM sodium acetate buffer, pH4.5) for 30 minutes. After the immobilization amount of SA reached 8,000-10,000 RU, the surface was deactivated by flowing 1 M Ethanolamine aqueous solution (pH 8.5) for 10 min and regenerated with 10 mM NaOH for 2 min to remove the unbound SA. In the meantime, biotinylated MYCN G4 DNA was prepared at 5 μM in the annealing buffer and heated up to 95° C. for 5 min and slowly cooled down. After annealing, a total of 150 μL solution was injected in the Fc 2 of SPR system for 30 min to immobilize DNA onto the chip surface. The small molecule solutions were tested once the baseline was stable.
To detect the binding signal as well as the binding affinity, a higher flowing rate (25 μL/min) was used in both Fc 1 (reference) and Fc 2 (DNA). Each of the compound solution was prepared at 20× designed the concentrations in DMSO, and then diluted into non-DMSO running buffer, resulting in a final concentration of 5% DMSO. Then, a total of 50 μL compound solution was injected in Fc 1-2 flow path for 120 s for association, followed with 200 s running of buffer for dissociation. An injection of 50 μL regeneration buffer (1 M KCl) could be performed between two samples if necessary. The final binding curve was obtained by reference subtraction. To determine the binding affinity (KD), a series of diluted compound solutions were injected and KD was calculated by BIAevaluation 4.0 software (GE Healthcare) using Langmuir 1:1 binding model.
In this example, SPR binding assays were performed to analyze binding activity of representative bivalent compounds of the present disclosure. The compounds of this example included a non-canonical binder component and a G4 stacker component. A BIAcore 3000 (GE Healthcare) instrument was used. A CM5 SPR biochip was used and primed with running buffer (10 mM Tris, pH7.0, 100 mM KCl, 0.005% Tween 20, 5% DMSO). To immobilize the compounds onto the chip surface, the flow rate was set as 5 μL/min. Then the carboxylated dextran on the chip surface was activated by EDC/NHS (0.4 M/0.1 M) aqueous solution for 15 min, followed with an injection of streptavidin (SA) solution (0.2 mg/mL in 10 mM sodium acetate buffer, pH 4.5) for 30 minutes. After the immobilization amount of SA, the surface was quenched by injecting 1 M ethanolamine (EA) aqueous solution (pH 8.5) for 10 min and regenerated with 10 mM NaOH for 2 min to remove the physical adsorption. Furthermore, biotinylated MYCN G4 DNA was prepared at 5 μM in the annealing buffer and heated up to 95° C. for 5 min followed with slowly cooling down to room temperature within 1 h. After annealing, a total of 150 μL solution was injected in the Fc 2 of SPR system for 30 min to immobilize DNA onto the chip surface. The compound solutions were then tested once the baseline was stable.
To detect the binding signal as well as the binding affinity, a higher flowing rate (25 μL/min) was used in both Fc 1 (blank) and Fc 2 (target). Each of the compound solutions was prepared at 20× designed the concentrations in DMSO, and then diluted into non-DMSO running buffer, resulting in a final concentration of 5% DMSO. Then, a total of 50 μL compound solution was injected in Fc 1-2 flow path for 120 s for association, followed with 200 s running of buffer for dissociation. An injection of 50 μL regeneration buffer (1 M KCl) could be performed between two samples if necessary. The final binding curve was obtained by referencing the blank channel (Fc 1). […]

MYCN hairpin-G4 DNA = assay: FIA using compound fluorescence (Ex 340/Em 500 nm), titration with unlabeled MYCN G4 DNA; conditions: for Kd: 100 nM compound titrated with folded unlabeled MYCN G4
Experimental: In this study, FIA was used for validating the bindings between certain bivalent and MYCN G4 oligos. To measure the binding affinity, a solution of each compound was prepared in triplicate in a 96 well-plate (Costar, black side clear bottom), resulting in a final concentration of 100 nM (5% final DMSO in the working solution). Unlabeled MYCN G4 DNA was folded based on the above-mentioned annealing method, then added into the well plate resulting in different concentrations by a seral dilution. The plate was incubated at room temperature for 30 min, followed by centrifuging at 500 rpm for 2 minutes. The fluorescence intensity was then quantitatively recorded by a Synergy Mx microplate reader (BioTek) at Ex 340 nm/Em 500 nm. The fluorescence intensities were then normalized, and the binding affinity was calculated by fitting the curve using one-site total model in GraphPad Prism 8.3.1 software.

MYCN G4 DNA [2] = assay: Fluorescence intensity assay (FIA) with 5′Cy5-labeled MYCN G4 DNA; conditions: single concentration 100 μM compound, 5′Cy5-MYCN G4
Experimental: Fluorescence intensity assay. In this disclosure, fluorescence intensity assay (FIA) was used for both validation of hit binding at a single dose and binding affinity determination. For validating hit compounds from SMM screening, 100 μM solution of each compound was prepared in triplicate in a 96 well-plate (Costar, black side clear bottom), resulting in 5% DMSO concentration. 5′Cy5-labeled MYCN G4 DNA was annealed as described above, then added into the well plate resulting in a final concentration of 100 nM. The plate was incubated shaking for 30 min, followed by centrifuging at 500 rpm for 2 minutes. The fluorescence intensity was then measured on a Synergy Mx microplate reader (BioTek) at Ex 649 nm/Em 670 nm. TMPyP4/DMSO were used as positive and negative controls, respectively. In certain examples, compounds were considered binders when a change of >10% change in fluorescence intensity was observed compared to that of negative control (DMSO solution). For binding affinity measurement, small molecule solutions were prepared as serial dilutions in DMSO. Then a final test plate was prepared by adding 5 μL small molecule solutions and 10 μL annealed DNA samples into 85 μL buffer solutions, resulting in the final small molecule concentrations from 0 to 250 μM (5% final DMSO concentration). The fluorescence intensities were normalized, and the binding affinity was calculated by fitting the curve using one-site total model in GraphPad Prism 8.3.1 software. The fluorescence titration using 3′-labeled oligonucleotides was also performed the same way.

[3] = target: MYCN G4 DNA (2-AP at A11); assay: 2-Aminopurine (2-AP) fluorescence titration, A11-labeled MYCN G4; conditions: 2-AP at A11 of MYCN G4
Experimental: 2-Aminopurine (2-AP) fluorescence titration. Fluorescence titrations based on 2-aminopurine labeling were performed using the protocol reported previously. Briefly, MYCN G4 oligonucleotide with a 2-AP substitution at either A11 or A18 position was annealed by heating the sample to 95° C. for 5 min and cooling down to RT slowly. The oligonucleotide with folded structure was diluted to 10 μM in Tris buffer (10 mM Tris, pH7.0, 100 mM KCl, 0.005% Tween 20) and prepared in a black 96-well plate (Costar) in triplicate as designed. Small molecules were diluted in DMSO to obtain a series of solutions with concentrations ranging from 0.1 to 5 mM, and then diluted by 20 times added into the plate (5% DMSO final concentration). The final concentration of 2-AP DNA was 1 μM in the well plate. To obtain the background fluorescence, small molecule solutions without DNA were also prepared in the same plate. After incubation for 30 min at RT, the plate was briefly centrifuged and scanned in Synergy Mx microplate reader (BioTek) with Ex 310 nm/Em 365 nm. Fluorescence signals were calculated by averaging the intensities in triplicate wells after subtracting the references. Finally, the binding signals were normalized and the KD value was determined by fitting the curve using a nonlinear sigmoidal dose-response model with a variable slope in GraphPad Prism 8.3.1 software.

[4] = MYCN hairpin G4, SPR titration, read-out: KD by SPR
[5] = MYCN G4, Langmuir 1:1 model, read-out: SPR KD

Row | SMILES | positive binding in FIA (>10% quenching) (MYCN G4 DNA [2]) | Kd (MYCN G4 DNA [1]; [5]) | Kd [3] | further results
1 | COc1ccc(-c2noc(-c3ccc(NCCOCCNc4c5ccc(Cl)cc5nc5ccc(OC)cc45)nn3)n2)cc1 [B35, 6-chloro-2-methoxy-N-(2-(2-((6-(3-(4-methoxyphenyl)-1,2,4-oxadiazol-5-yl)pyridazin-3-yl)amino)ethoxy)ethyl)acridin-9-amine] |  |  |  | Kd (MYCN G4 DNA [1]; [4]): 0.014 ± 0.006 µM; Kd (MYCN hairpin-G4 DNA): 0.038 ± 0.005 µM; fold improvement of KD compared to B32 (MYCN hairpin-G4 DNA; FIA and SPR, MYCN HP-G4): > 10 fold
2 | COc1ccc(-c2noc(-c3ccc(NCCOCCOCCNc4c5ccc(Cl)cc5nc5ccc(OC)cc45)nn3)n2)cc1 [B38, 6-chloro-2-methoxy-N-(2-(2-(2-((6-(3-(4-methoxyphenyl)-1,2,4-oxadiazol-5-yl)pyridazin-3-yl)amino)ethoxy)ethoxy)ethyl)acridin-9-amine] |  |  |  | Kd (MYCN G4 DNA [1]; [4]): 0.087 ± 0.039 µM; Kd (MYCN hairpin-G4 DNA): 0.069 ± 0.021 µM
3 | c1cc(CNCCCN2CCCCCC2)n(-c2nnc(C3CCCCCC3)s2)c1 [Compound 2] | hits |  |  | positive binding in SPR (SNR>3) (MYCN G4 DNA [1]): hits
4 | O=C1C(=O)C(c2ccc3c(c2)CCCC3)C1NC1CCN(Cc2ccccc2)CC1 (centres unmarked) [Compound 3] |  |  |  | positive binding in SPR (SNR>3) (MYCN G4 DNA [1]): hits
5 | COCC(=O)c1nc2ccccc2nc1NCc1cccnc1 [Compound 5] | hits |  |  | positive binding in SPR (SNR>3) (MYCN G4 DNA [1]): hits
6 | Cc1c(C(=O)O)sc2ncnc(NCCCN3CCN(c4ccccc4)CC3)c12 [Compound 9] |  |  |  | positive binding in SPR (SNR>3) (MYCN G4 DNA [1]): hits
7 | Cc1ccc(Nc2cc(C)nc(N3CCN(C(=O)CCc4ccccc4)CC3)n2)cc1 [Compound 10] | hits |  |  | 
8 | COc1ccc2c(c1)sc1nc(-c3ccc(OC)c(OC)c3)c(NC(C)(C)C)n12 [Compound 11] | hits |  |  | 
9 | CCOc1ccc(CNC(=O)c2cnc(N3CCSCC3)nc2N)cc1 [Compound 12] | hits |  |  | 
10 | CCCNc1cc(N2CCCC(CCC(=O)N3CCN(c4ncccn4)CC3)C2)ncn1 (centres unmarked) [Compound 13] |  |  |  | positive binding in SPR (SNR>3) (MYCN G4 DNA [1]): hits
11 | CC(C)COCC(O)CN1CCN(c2ccc(NC(=O)c3cccs3)cn2)CC1 (centres unmarked) [Compound 14] | hits |  |  | 

Second part, led by results:

Row | positive binding in FIA (>10% quenching) (MYCN G4 DNA [2]) | Kd (MYCN G4 DNA [1]; [5]) | Kd [3] | SMILES | further results
12 |  | 5.9 ± 2.7 µM | 1.2 ± 0.6 µM | COCCNc1ccc(-c2nc(-c3ccc(OC)cc3)no2)nn1 [MY-3] | 
13 |  | 1.4 ± 0.2 µM | 1 ± 0.1 µM | COc1ccc(-c2noc(-c3ccc(NCCCN4CCN(C)CC4)nn3)n2)cc1 [MY-5, 6-(3-(4-methoxyphenyl)-1,2,4-oxadiazol-5-yl)-N-(3-(4-methylpiperazin-1-yl)propyl)pyridazin-3-amine] | 
14 |  | 4.9 ± 2.6 µM | 1 ± 0.2 µM | COc1ccc(-c2noc(-c3ccc(NCCN(C)C)nn3)n2)cc1 [MY-6] | 
15 |  | 23.5 ± 4.7 µM | 13.2 ± 4.6 µM | COc1ccc(-c2noc(-c3ccc(NCCC(N)=O)nn3)n2)cc1 [MY-7] | 
16 |  | 2.2 ± 0.6 µM | 0.7 ± 0.2 µM | COc1ccc(-c2noc(-c3ccc(NCCCN4CCC(C)CC4)nn3)n2)cc1 [MY-10] | A11 2AP KD [3]: sub-micromolar binders
17 |  | 9.2 ± 1.9 µM | 1.2 ± 0.2 µM | COc1ccc(-c2noc(-c3ccc(NCCCN(C)C)nn3)n2)cc1 [MY-11] | 
18 |  | > 100 µM |  | COc1ccc(-c2noc(-c3ccc(NCCN4CCCC4)nn3)n2)cc1 [MY-12] | 
19 |  | 8.2 ± 2.4 µM | 3.2 ± 0.7 µM | COc1ccc(-c2noc(-c3ccc(NCCN4CCOCC4)nn3)n2)cc1 [MY-13, 6-(3-(4-methoxyphenyl)-1,2,4-oxadiazol-5-yl)-N-(2-morpholinoethyl)pyridazin-3-amine] | 
20 |  | 3.6 ± 1 µM | 0.9 ± 0.2 µM | COc1ccc(-c2noc(-c3ccc(NCCN4CCN(C)CC4)nn3)n2)cc1 [MY-14] | A11 2AP KD [3]: sub-micromolar binders
